Assay results: patent US9527859B2, “Amidopyridine derivative and use thereof” (Mitsubishi Tanabe Pharma Corporation, priority 2012, dated 2016)

How the values were obtained:
[1] = molecular target: T1, hERG current in hERG-expressed HEK 293 cells (Homo sapiens, UniProt Q12809); experiment: Effects on hERG current (whole-cell clamp); assay type: cell-based; conditions: 1 μM of test compound, tail peak current
T1 construct: host or cells: HEK 293 cells, G418-selected
Experimental: Dimethylsulfoxide was used as a vehicle, and hERG-expressed HEK 293 cells (Cytomyx) were used as test cells. Test cells were once cultured and subdivided and were stored under frozen condition in liquid nitrogen. In the study, thawed and subcultured cells having less than 30 of the passage number were used. Test cells were cultured in a carbon dioxide gas incubator BNP-110M (Tabai Espec Corp.) at 37±1° C. and 5.0±0.5% of carbon dioxide concentration. The component of culture medium was basically MEM (Minimum Essential Medium) supplemented with 10 vol % fetal bovine serum (non-activated), 1 mmol/L sodium pyruvate, 0.1 mmol/L non-essential amino acid and 100 U/mL penicillin/100 μg/mL streptomycin. To select gene-expressing cells, 400 μg/mL G418 Sulphate (Invitrogen) was added to the culture medium. […] A manufacturer of the culture solution is Invitrogen Corporation.
As to seeding of cells for measurement, subcultured cells which became confluent were treated with 0.25% trypsin-solution containing 1 mmol/L EDTA (Invitrogen) to remove therefrom, and seeded on dishes overlaid with sterilized collagen-coated cover glass (Iwaki, AGC Techno Glass Co., LTD). The medium was exchanged appropriately, including the day of measurement.
A perfusion method was carried out for an application route. Test cells were perfused (perfusion speed: approximately 4 mL/min) with an external solution containing specified concentrations of test compounds (component of external solution: 137 mmol/L of sodium chloride, 4 mmol/L of potassium chloride, 10 mmol/L of HEPES, 1.8 mmol/L of calcium chloride, 1 mmol/L of magnesium chloride and 10 mmol/L of glucose; adjusted to pH 7.4±0.1 with sodium hydroxide solution). When no effects were observed until 4 minutes after switching to a test compound solution, the next different concentration of the test compound was perfused. When effects were observed, the perfusion was continued until the maximum response was observed. The maximum perfusion time for lower concentrations of test compound was set for 10 minutes even when effects were observed. The data were obtained from one experiment or more and the cells which were gently incubated in a carbon dioxide incubator after seeding and attached to cover glasses were used for the measurement.
A whole-cell clamping method was applied to the measurement. Test cells were perfused (perfusion speed: approximately 4 mL/min) with an external solution (component of external solution: 137 mmol/L of sodium chloride, 4 mmol/L of potassium chloride, 10 mmol/L of HEPES, 1.8 mmol/L of calcium chloride, 1 mmol/L of magnesium chloride and 10 mmol/L of glucose; adjusted to pH 7.4±0.1 with sodium hydroxide solution). A glass electrode with a resistance of 2 to 6 MΩ, filled with an internal solution (component: 130 mmol/L of potassium chloride, 1 mmol/L of magnesium chloride, 5 mmol/L of EGTA, 10 mmol/L of HEPES and 5 mmol/L of ATP, adjusted to pH 7.2±0.1 with potassium hydroxide solution) was used. After rupturing cell membrane with glass electrode, the cell membrane voltage was held at −80 mV by using patch clamp amplifier (EPC8, HEKA) via a patch clamp software (pCLAMP9 [Axon CNS], Molecular Devices). As illustrated below, a test pulse of +20 mV for 1.5 seconds and −40 mV for 1.5 seconds was given once every 15 seconds. One minute or more after obtaining 500 pA or higher peak value of the stable tail currents, test compounds were applied. Test cells and the cell-seeded cover glass were changed every treatment. Temperature of the fluid in a perfusion fluid tank was 24±2° C.
The obtained current was recorded on a computer by using a patch clamp software via a patch clamp amplifier. An evaluation item was a tail peak current.
A tail peak current was analyzed using analyzing software (Clampfit 9 [Axon CNS], MolecularDevices). […]

[2] = tested on: type II collagen-induced arthritis in DBA/1J mice; experiment: Effect on type II collagen-induced arthritis in DBA/1J mice; assay type: in vivo, mouse; conditions: oral, once a day for three weeks from booster immunization; significant inhibitory effect on arthritis
Experimental: Effect on Type II Collagen-Induced Arthritis in DBA/1J Mice
An emulsion was prepared by mixing 200 μg of bovine type II collagen (purchased from collagen Gijyutsu Kenshuukai) with Freund's complete adjuvant (Sigma-Aldrich) containing killed Mycobacterium tuberculosis H37Ra, and arthritis was induced by immunization through subcutaneous administration of the emulsion to the tail of 6 to 7 week-old male DBA/1J mouse (Charles River Japan, Inc.), followed by booster immunization three weeks after the first immunization by administration of the same amounts of the emulsion prepared in a similar way. Test compound was suspended or dissolved in 0.5% carboxymethylcellulose (Sigma-Aldrich) and repeatedly administered orally once a day at a dose of 1 to 10 mg/kg body weight using an oral sonde for three weeks from the day of booster immunization. In this model, the symptom of arthritis of the limbs was each evaluated according to the following evaluation criteria of 0 to 4 scores: […], No change; 1, edema in only one joint; 2, edema in two or more joints, or mild edema of the entire limb; 3, severe edema of the entire limb; 4, severe edema of the entire limb and ankylosis and immovability of joint. The score of arthritis of each mouse was expressed as the total of the scores of the limbs (Maximum: 16 points). On the next day of the final administration, soft X-ray photograph of the limbs was taken with soft X-ray equipment (Omic), and the level of joint destruction was evaluated by observation under a microscope. In each finger of the limbs the score of joint destruction in each mouse was judged in the total of scores for each finger of limbs (Maximum: 20) as 0 when no joint destruction was found, and as 1 when one or more destruction was found. The arthritis score and joint destruction score were expressed as the average value and standard error for each group (n=6 to 9). Only a vehicle was administered in a control group, and statistical analysis was performed by Dunnett's multiple comparison test, in which the case was judged as significant when the p value was less than 0.05.

T1 sequence (Q12809 whole entry): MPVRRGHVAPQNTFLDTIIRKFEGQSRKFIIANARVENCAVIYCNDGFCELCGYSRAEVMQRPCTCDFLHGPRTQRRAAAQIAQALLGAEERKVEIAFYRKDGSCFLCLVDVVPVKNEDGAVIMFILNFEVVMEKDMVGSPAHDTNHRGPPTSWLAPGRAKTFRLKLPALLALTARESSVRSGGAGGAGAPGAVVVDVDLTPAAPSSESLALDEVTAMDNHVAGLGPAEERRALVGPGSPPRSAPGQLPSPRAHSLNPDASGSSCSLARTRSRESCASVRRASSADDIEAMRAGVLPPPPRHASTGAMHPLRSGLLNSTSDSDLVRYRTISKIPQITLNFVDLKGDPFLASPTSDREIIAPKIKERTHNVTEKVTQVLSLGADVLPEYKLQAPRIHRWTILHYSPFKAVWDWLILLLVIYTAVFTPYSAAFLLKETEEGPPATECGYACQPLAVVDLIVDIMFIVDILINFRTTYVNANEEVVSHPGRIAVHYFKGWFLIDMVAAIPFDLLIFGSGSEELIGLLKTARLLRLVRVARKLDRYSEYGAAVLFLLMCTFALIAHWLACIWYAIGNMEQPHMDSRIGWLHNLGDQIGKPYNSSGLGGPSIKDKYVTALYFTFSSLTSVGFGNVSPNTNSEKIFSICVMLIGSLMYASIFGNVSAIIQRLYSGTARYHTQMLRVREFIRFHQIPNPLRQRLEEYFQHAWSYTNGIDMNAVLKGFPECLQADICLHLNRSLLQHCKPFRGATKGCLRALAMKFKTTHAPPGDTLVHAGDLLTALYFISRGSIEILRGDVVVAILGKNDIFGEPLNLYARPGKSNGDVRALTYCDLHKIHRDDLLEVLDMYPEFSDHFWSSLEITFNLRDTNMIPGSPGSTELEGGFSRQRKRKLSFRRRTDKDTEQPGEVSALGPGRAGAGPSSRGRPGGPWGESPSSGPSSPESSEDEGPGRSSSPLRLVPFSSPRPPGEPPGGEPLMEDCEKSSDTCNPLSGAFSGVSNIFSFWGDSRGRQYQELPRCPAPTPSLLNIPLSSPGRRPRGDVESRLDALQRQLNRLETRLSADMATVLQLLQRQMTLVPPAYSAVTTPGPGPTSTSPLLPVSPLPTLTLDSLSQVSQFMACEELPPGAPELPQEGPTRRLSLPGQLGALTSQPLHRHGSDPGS

| Structure (SMILES) | Inhibition ratio (%) [1] | Effective Dose (showing arthritis-inhibiting activity) [2] |
| --- | --- | --- |
| Cc1c(C(=O)Nc2cnc(N3CCC(O)CC3)c(C3CC3)c2)cnn1-c1ccc(Cl)cc1 [Example 39, 1-(4-chlorophenyl)-N-[5-cyclopropyl-6-(4-hydroxypiperidin-1-yl)pyridin-3-yl]-5-methyl-1H-pyrazole-4-carboxamide] | 8.1% | 3 mg/kg |
| Cc1cc(NC(=O)c2cnn(-c3ccc(Cl)cc3)c2C)cnc1N1CCC(O)CC1 [Example 43, 1-(4-chlorophenyl)-N-[6-(4-hydroxypiperidin-1-yl)-5-methylpyridin-3-yl]-5-methyl-1H-pyrazole-4-carboxamide] | 9.4% | – |
| Cc1c(C(=O)Nc2cnc(N3CCC(O)CC3)c(C#N)c2)cnn1-c1ccc(Cl)cc1 [Example 44, 1-(4-chlorophenyl)-N-[5-cyano-6-(4-hydroxypiperidin-1-yl)pyridin-3-yl]-5-methyl-1H-pyrazole-4-carboxamide] | 2% | 3 mg/kg |
| Cc1c(C(=O)Nc2cnc(N3CCC(O)CC3)c(C#N)c2)cnn1-c1ccc(C(F)(F)F)cc1 [Example 45, N-[5-cyano-6-(4-hydroxypiperidin-1-yl)pyridin-3-yl]-5-methyl-1-[4-(trifluoromethyl)phenyl]-1H-pyrazole-4-carboxamide] | 4.2% | 10 mg/kg |
| Cc1cc(NC(=O)c2cnn(-c3ccc(C(F)(F)F)cc3)c2C)cnc1N1CCC(C(C)(C)F)CC1 [Example 47, N-{6-[4-(1-fluoro-1-methylethyl)piperidin-1-yl]-5-methylpyridin-3-yl}-5-methyl-1-[4-(trifluoromethyl)phenyl]-1H-pyrazole-4-carboxamide] | 32.7% | – |
| Cc1cc(NC(=O)c2cnn(-c3ccc(C(F)(F)F)cn3)c2C)cnc1N1CCC(C(C)(C)F)CC1 [Example 49, N-{6-[4-(1-fluoro-1-methylethyl)piperidin-1-yl]-5-methylpyridin-3-yl}-5-methyl-1-[5-(trifluoromethyl)pyridin-2-yl]-1H-pyrazole-4-carboxamide] | 40.5% | – |
